# Biological target: T1, HPK1 protein (Homo sapiens, UniProt Q92918)
# T1 construct: purchased Signal Chem M23-11G-10
# T1 sequence (Q92918 1-346 limits assumed): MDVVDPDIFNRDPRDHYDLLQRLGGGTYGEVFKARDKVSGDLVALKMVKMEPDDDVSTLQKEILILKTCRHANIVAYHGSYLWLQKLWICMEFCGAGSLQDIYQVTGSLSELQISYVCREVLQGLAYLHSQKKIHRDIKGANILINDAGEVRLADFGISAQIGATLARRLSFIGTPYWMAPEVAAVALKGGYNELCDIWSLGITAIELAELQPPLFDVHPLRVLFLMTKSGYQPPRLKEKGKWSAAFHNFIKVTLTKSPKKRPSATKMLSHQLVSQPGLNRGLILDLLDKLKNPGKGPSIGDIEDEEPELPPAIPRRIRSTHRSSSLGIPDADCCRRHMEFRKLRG
# Experiment: HPK1 enzyme inhibition assay (ADP-Glo)
# Format: biochemical
# Settings: MBP substrate, ATP, ADP-Glo readout
# Procedure: The compound was dissolved in 100% DMSO at the concentration of 10 mM. The HPK1 protein was purchased from Signal Chem (M23-11G-10). 2.5 μL per well of 2×HPK1 protein was added to assay plate containing the test compound, centrifuged at 1500 rpm for 1 minute, and then incubated at 25° C. for 60 minutes. MBP protein was purchased from Signal Chem (M42-51N) and ATP was purchased from Promega (V9102). The two were added 2.5 μL per well mixture of 2×MBP (0.2 ug/ul) and ATP (20 μM), centrifuged at 1500 rpm for 1 minute, then incubated at 25° C. for 60 minutes. Then added 5 μL of ADP-Glo from Promega (V9102) to the assay plate and depleted the unconsumed ATP for 60 minutes. Then centrifuged at 1500 rpm for 1 minute and incubated at 25° C. for 60 minutes. Finally, 10 μL of the kinase assay reagent from Promega (V9102) was added to the assay plate to convert ADP to ATP, centrifuged at 1500 rpm for 1 minute, incubate at 25° C. for 40 minutes. After 40 minutes incubation, the […] was determined. Based on the results, the IC50 value of the compound was calculated.
row,SMILES,IC50 [nM]
1,"O=C1CCC(N2C(=O)c3ccc(CN4CCC(OC(=O)N5CCN(c6cccc(-c7cnc8[nH]cc(C9CC9)c8c7Cl)c6)C(=O)C5)CC4)cc3C2=O)C(=O)N1 (stereo not shown) [Example 94, 1-((2-(2,6-dioxopiperidin-3-yl)-1,3-dioxoisoindolin-5-yl)methyl)piperidin-4-yl 4-(3-(4-chloro-3-cyclopropyl-1H-pyrrolo[2,3-b]pyridin-5-yl)phenyl)-3-oxopiperazine-1-carboxylate]",10 to 100
2,"CCc1c[nH]c2ncc(-c3cccc(N4CCN(C(=O)CCCCCCCNc5cccc6c5CN(C5CCC(=O)NC5=O)C6=O)CC4=O)c3)c(Cl)c12 (stereo not shown) [Example 10, 3-(4-((8-(4-(3-(4-chloro-3-ethyl-1H-pyrrolo[2,3-b]pyridin-5-yl)phenyl)-3-oxopiperazin-1-yl)-8-oxooctyl)amino)-1-oxoisoindolin-2-yl)piperidine-2,6-dione]",100 to 1000
3,"CCc1c[nH]c2ncc(-c3cccc(N4CCN(Cc5ccc6c(c5)C(=O)N(C5CCC(=O)NC5=O)C6=O)CC4=O)c3)c(Cl)c12 (stereo not shown) [Example 90, 5-((4-(3-(4-chloro-3-ethyl-1H-pyrrolo[2,3-b]pyridin-5-yl)phenyl)-3-oxopiperazin-1-yl)methyl)-2-(2,6-dioxopiperidin-3-yl)isoindoline-1,3-dione]",10 to 100
4,"CCc1c[nH]c2ncc(-c3cccc(N4CCN(C(=O)CCOCCOCc5cn(-c6cccc7c6CN(C6CCC(=O)NC6=O)C7=O)nn5)CC4=O)c3)c(Cl)c12 (stereo not shown) [Example 13, 3-(4-(4-((2-(3-(4-(3-(4-chloro-3-ethyl-1H-pyrrolo[2,3-b]pyridin-5-yl)phenyl)-3-oxopiperazin-1-yl)-3-oxopropoxy)ethoxy)methyl)-1H-1,2,3-triazol-1-yl)-1-oxoisoindolin-2-yl)piperidine-2,6-dione]",10 to 100
5,CCc1c[nH]c2ncc(-c3cccc(N4CCN(CC5CN(c6ccc7c(c6)C(=O)N(C6CCC(=O)NC6=O)C7=O)C5)CC4=O)c3)c(Cl)c12 (stereo not shown) [Example 89],10 to 100
6,CCc1c[nH]c2ncc(-c3cccc(N4CCN(CCNC(=O)C5CCN(c6ccc7c(c6)C(=O)N(C6CCC(=O)NC6=O)C7=O)CC5)CC4=O)c3)c(Cl)c12 (stereo not shown) [Example 37],> 1000
7,"CCc1c[nH]c2ncc(-c3cccc(N4CCN(C(=O)CCCN(C)c5cccc6c5CN(C5CCC(=O)NC5=O)C6=O)CC4=O)c3)c(Cl)c12 (stereo not shown) [Example 15, 3-(4-((4-(4-(3-(4-chloro-3-ethyl-1H-pyrrolo[2,3-b]pyridin-5-yl)phenyl)-3-oxopiperazin-1-yl)-4-oxobutyl)(methyl)amino)-1-oxoisoindolin-2-yl)piperidine-2,6-dione]",10 to 100

# From patent publication US20240368159A1, “HPK1 DEGRADERS, COMPOSITIONS COMPRISING THE HPK1 DEGRADER, AND METHODS OF USING THE SAME” (BIOFRONT LTD, priority 2021, published 2024)
